# Measurements from patent US8252832B2, “Kinesin inhibitors as cancer therapeutics” (Novartis AG, priority 2007, dated 2012).
# Columns and labels:
# T47-D = test: LDH release assay; type: cell-based; settings: Homo sapiens, T47D
# Description: (§1) Identification of tumor types that are the most sensitive to the KSP inhibitors of the present invention can be accomplished using an unbiased approach that uses several cell-based assays. The assays chosen were as follows: • CellTiter-Glo®. This is an assay designed to measure ATP concentration in a cell culture, and can be correlated to cell number. Briefly CellTiter-Glo® (Promega Corporation) is a homogeneous method using the single CellTiter-Glo® reagent to detect ATP wherein ATP in the assay drives the activity of a thermostable luciferase to create a luminescent signal which can then be measured and correlated with the number of viable cells. Briefly, for adherent cells, 1,000 to 5,000 cells/well were plated in 96-well plates (100 μl/well) and let to adhere for 24 hours before being treated with drug. For non-adherent cells, 1,000 to 10,000 cells/well were plated in 96-well plates (100 μl/well) and immediately treated with drug. Drug dilutions were prepared in DMSO at 1000 times the final concentration. These dilutions were then diluted 1/100 in growth media before being added to the cells (11 μl/well) to achieve the desired final concentration. After 48 h in a 37° C. tissue culture incubator, the plates were processed for the CellTiter-Glo®assay according to the manufacturer's instructions. Protocol for a 72 hour cell proliferation assay: The 72 hour assay was performed the same way as the 48 hour assay except for the following modifications: For adherent cells, 500 to 5,000 cells/well were plated in 96-well plates (90 μl/well cell growth media) and left to adhere for 24 hours before being treated with drug. For non-adherent cells, 1,000 to 10,000 cells/well were plated in 96-well plates (90 μl/well cell growth media) and immediately treated with drug. Data values presented represent the concentration of test compound required for a 50% reduction in growth. • LDH release. The Cytotoxicity Detection KitPLUS (LDH) assay (Roche Diagnostics, Manheim, Germany) measures the amount of LDH released in the media by dying cells; LDH catalyzes the conversion of lactate into pyruvate. The enzymatic reaction is coupled to a chemical reaction that uses a tetrazolium salt to form a formazan that is red and can be detected by its absorbance at 490 nm. This assay measures the amount of cell death after drug treatment. Cells were plated at 10,000 cells/well in 96-well plates (100 μl/well). Adherent cells were let to adhere for 24 hours before being treated with drug, whereas non-adherent cells were immediately treated with drug. Drug dilutions were prepared in DMSO at 1000 times the final concentration. These dilutions were then diluted 1/100 in growth media before being added to the cells (11 μl/well) to achieve the desired final concentration. […] The media only values were subtracted from all the data points before analysis. Data values presented correspond to the compound concentration wherein LDH output is at half maximal level. • Caspase-Glo® 3/7. The Caspase-Glo® 3/7 Assay (Promega Corporation) is a homogeneous luminescent assay that measures caspase-3/7 activities. The assay provides a proluminescent caspase-3/7 DEVD-aminoluciferin substrate and a thermostable luciferase in a reagent optimized for caspase-3/7 activity, luciferase activity and cell lysis. Adding the single Caspase-Glo® 3/7 Reagent results in cell lysis, followed by caspase cleavage of the substrate. This liberates free aminoluciferin, which is consumed by the luciferase, generating a luminescent signal. The signal is proportional to caspase-3/7 activity. Data values presented correspond to the compound concentration wherein caspase 3/7 activity is at half maximal level.
# HCT-116 = test: LDH release assay; type: cell-based; settings: Homo sapiens
# Description: as §1
# HT29 = test: LDH release assay; type: cell-based; settings: Homo sapiens, HT-29
# Description: as §1
# RL = test: Cell cycle profile by FACS (propidium iodide DNA content); type: cell-based, human; settings: 24 and 48 hr
# Experimental: Lymphoma cell line cells were treated with the KSP inhibitors of the invention and analyzed by FACs analysis. Approximately 2×10^5 cells were harvested, cell pellets were washed with cold PBS twice and re-suspended in 500 μL cold PBS. Cells were fixed by adding 8 mL cold 80% ethanol while vortexing slowly. After 15 minutes of incubation fixed cells were washed twice with PBS and cell pellets were re-suspended in 1 mL of PI/RNASE staining buffer (BD Pharmingen™ catalog #550825) and incubated for 15 minutes at 37° C. protected from light. Propidium iodide (PI) is a fluorescent vital dye that stains both DNA and RNA. Therefore the RNA must be removed by digestion with ribonuclease (RNase). Stained cells were passed through a cell strainer into a FACS tube to reduce the number of cell aggregates (BD Falcon #352235) prior to FACS analysis. The DNA content of the fixed and stained cells was analyzed by the BD FACSCalibur flow cytometer using the CellQuest software.
# Following mitotic arrest, cells have several options including coming out of arrest and dividing normally, undergoing apoptosis directly, or exiting mitosis without cytokinesis (a phenomenon called mitotic slippage). If cells undergo mitotic slippage, they can enter a pseudo-G1 and then either continue to cycle, senesce, or undergo apoptosis. […]
compound,measurement,setting,value
CC(C)(C)[C@H](c1nc(-c2cc(F)ccc2F)cn1Cc1ccccc1)N(CC[C@H](N)CF)C(=O)CO [Compound IIa],EC50,T47-D; 48 h,320 pM
same,EC50,T47-D; 72 h,330 pM
same,EC50,"HCT-116; HCT-116, 24 h",60 pM
same,EC50,"HCT-116; HCT-116, 48 h",100 pM
same,EC50,"HCT-116; HCT-116, 72 h",100 pM
same,EC50,"HT29; HT29, 48 h",350 pM
same,EC50,"HT29; HT29, 72 h",270 pM
same,"cell cycle profile (DNA content, FACS)",RL,remained arrested in mitosis
